Source: ChEMBL document CHEMBL1154947, “Discovery of N-(5,6-diarylpyridin-2-yl)amide derivatives as potent and selective A(2B) adenosine receptor antagonists” (Bioorg Med Chem Lett, 2010)

Legend:
[1] = molecular target: T1, Adenosine receptor A3 (Homo sapiens) (UniProt P0DMS8); test: Inhibition of [3H]NECA binding to human adenosine A3 receptor expressed in human HeLa cells at 1 uM after 3 hrs by filtration binding assay; type: cell-based
T1 sequence (whole entry): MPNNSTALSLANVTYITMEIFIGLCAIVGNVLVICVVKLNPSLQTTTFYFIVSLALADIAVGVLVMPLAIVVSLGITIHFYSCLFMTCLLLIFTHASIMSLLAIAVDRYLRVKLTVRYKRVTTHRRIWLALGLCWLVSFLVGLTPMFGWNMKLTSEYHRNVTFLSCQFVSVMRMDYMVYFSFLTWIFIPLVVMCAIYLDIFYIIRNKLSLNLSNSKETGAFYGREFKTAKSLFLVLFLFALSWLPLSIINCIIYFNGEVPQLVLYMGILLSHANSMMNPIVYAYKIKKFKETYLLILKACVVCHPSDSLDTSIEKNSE

[2] = molecular target: T2, Adenosine receptor A2a (Homo sapiens, UniProt P29274); test: Inhibition of [3H]ZM241385 binding to human adenosine A2A receptor expressed in human HeLa cells at 1 uM after 1 hr by scintillation proximity assay; type: cell-based
T2 sequence (P29274 whole entry): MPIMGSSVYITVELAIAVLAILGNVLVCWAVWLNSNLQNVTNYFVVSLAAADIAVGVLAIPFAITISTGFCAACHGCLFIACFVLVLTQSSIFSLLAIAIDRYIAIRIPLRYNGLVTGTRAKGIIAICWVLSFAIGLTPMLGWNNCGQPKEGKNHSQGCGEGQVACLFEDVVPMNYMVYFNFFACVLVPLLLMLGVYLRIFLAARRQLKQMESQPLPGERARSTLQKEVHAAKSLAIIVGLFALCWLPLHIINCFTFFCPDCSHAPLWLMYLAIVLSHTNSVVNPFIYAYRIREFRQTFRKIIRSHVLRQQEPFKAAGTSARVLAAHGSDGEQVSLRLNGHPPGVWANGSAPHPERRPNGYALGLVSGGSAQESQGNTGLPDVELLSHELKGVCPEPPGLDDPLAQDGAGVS

[3] = molecular target: T3, Adenosine receptor A2b (Homo sapiens, UniProt P29275); test: biochemical
T3 sequence (P29275 whole entry): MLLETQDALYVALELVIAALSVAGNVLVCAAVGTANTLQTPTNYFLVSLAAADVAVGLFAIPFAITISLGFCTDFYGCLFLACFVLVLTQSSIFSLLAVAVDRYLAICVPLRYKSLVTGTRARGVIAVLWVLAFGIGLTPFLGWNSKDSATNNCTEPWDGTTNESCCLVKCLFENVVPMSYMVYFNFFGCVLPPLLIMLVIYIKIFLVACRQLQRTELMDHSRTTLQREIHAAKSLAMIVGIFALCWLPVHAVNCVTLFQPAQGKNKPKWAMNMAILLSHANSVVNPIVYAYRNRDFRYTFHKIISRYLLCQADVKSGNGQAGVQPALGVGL
Description: Displacement of [3H]DPCPX from human adenosine A2B receptor expressed in HEK293 cells after 60 mins by filtration binding assay

[4] = molecular target: T4, Adenosine receptor A1 (Homo sapiens) (UniProt P30542); test: Inhibition of [3H]DPCPX binding to human adenosine A1 receptor expressed in CHO cells at 1 uM after 90 mins by filtration binding assay; type: cell-based
T4 sequence (whole entry): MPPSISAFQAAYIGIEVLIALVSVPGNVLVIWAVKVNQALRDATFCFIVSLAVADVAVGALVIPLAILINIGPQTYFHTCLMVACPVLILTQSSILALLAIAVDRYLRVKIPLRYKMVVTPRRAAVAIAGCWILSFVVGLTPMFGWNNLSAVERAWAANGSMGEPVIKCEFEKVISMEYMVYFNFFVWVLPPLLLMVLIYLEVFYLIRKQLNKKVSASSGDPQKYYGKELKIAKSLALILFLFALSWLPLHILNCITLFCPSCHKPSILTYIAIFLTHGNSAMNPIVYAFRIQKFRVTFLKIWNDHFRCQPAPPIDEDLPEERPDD

[5] = molecular target: T2, Adenosine receptor A2a; test: Displacement of [3H]ZM241385 from human adenosine A2A receptor expressed in human HeLa cells after 1 hr by scintillation proximity assay; type: cell-based
[6] = molecular target: T5, Adenosine receptor A3 (Homo sapiens, UniProt P0DMS8); test: Displacement of [3H]NECA from human adenosine A3 receptor expressed in human HeLa cells after 3 hrs by filtration binding assay; type: cell-based
T5 sequence (P0DMS8 whole entry): T1 sequence (whole entry)

[7] = molecular target: T6, Adenosine receptor A1 (Homo sapiens, UniProt P30542); test: biochemical
T6 sequence (P30542 whole entry): T4 sequence (whole entry)
Description: Displacement of [3H]DPCPX from human adenosine A1 receptor expressed in CHO cells after 90 mins by filtration binding assay

[8] = Metabolic stability in human liver microsomes assessed as turnover at 5 uM after 30 mins in absence of NADPH; type: ADME, Microsome; conditions: read-out: Activity
[9] = Metabolic stability in rat liver microsomes assessed as turnover at 5 uM after 30 mins in absence of NADPH; type: ADME, Microsome; conditions: read-out: Activity
[10] = molecular target: T7, Adenosine receptor A2b (Homo sapiens) (UniProt P29275); test: Inhibition of [3H]DPCPX binding to human adenosine A2B receptor expressed in HEK293 cells at 1 uM after 60 mins by filtration binding assay; type: cell-based
T7 sequence (whole entry): T3 sequence (P29275 whole entry)

[11] = Oral bioavailability in rat at 10 mg/kg; type: ADME, organism-based; conditions: in vivo
[12] = Volume of distribution at steady state in rat at 1 mg/kg, iv; type: ADME, organism-based; set-up: dose 1 mg/kg, route intravenous; conditions: in vivo, read-out: Vdss
[13] = AUC (0 to infinity) in rat at 1 mg/kg, iv; type: ADME, organism-based; set-up: time infinity, dose 1 mg/kg, route intravenous; conditions: plasma
[14] = Terminal half life in rat at 1 mg/kg, iv; type: ADME, organism-based; set-up: dose 1 mg/kg, route intravenous; conditions: in vivo, read-out: beta t1/2 (converted)
[15] = Cmax in rat at 1 mg/kg, iv; type: ADME, organism-based; set-up: dose 1 mg/kg, route intravenous; conditions: in vivo
[16] = Tmax in rat at 10 mg/kg, po; type: ADME, organism-based; set-up: dose 10 mg/kg, route oral; conditions: in vivo
[17] = Clearance in rat at 1 mg/kg, iv; type: ADME, organism-based; set-up: dose 1 mg/kg, route intravenous; conditions: in vivo
[18] = Metabolic stability in human liver microsomes assessed as turnover at 5 uM after 30 mins in presence of NADPH; type: ADME, Microsome; conditions: read-out: Activity
[19] = Metabolic stability in rat liver microsomes assessed as turnover at 5 uM after 30 mins in presence of NADPH; type: ADME, Microsome; conditions: read-out: Activity

SMILES | inhibition [1] [%] | Ki [3] [nM] | inhibition [4] [%] | Ki [5] [nM] | Ki [6] [nM] | Ki [7] [nM] | further results
CC(=O)Nc1ccc(-c2ccncn2)c(-c2ccco2)n1 | 28 | 47 | 7 |  |  |  | inhibition [2]: 20%
c1cncc(Nc2ncc(-c3ccncn3)c(-c3ccco3)n2)c1 |  |  |  |  | 1040 | 2820 | 
Cc1ccc(-c2nc(NC(=O)C3CC3)ccc2-c2ccncc2)o1 |  | 5 |  | 11 | 189 | 25 | 
CC(=O)Nc1ccc(-c2ccncc2)c(-c2cccc(F)c2)n1 |  | 30 |  | 286 | 471 | 58 | 
O=C(Nc1ccc(-c2ccncc2)c(-c2ccccc2F)n1)C1CC1 |  | 2 |  | 61 | 817 | 123 | metabolised at 0.5 h, 5 µM [8]: 86%; metabolised at 0.5 h, 5 µM [9]: 100%
N#Cc1ccc(NC(=O)C2CC2)nc1-c1ccco1 |  | 41 |  | 12 | 326 | 289 | 
O=C(Nc1ccc(-c2ccncc2)c(-c2cccnc2)n1)C1CC1 | 10 | 33 | 21 | 1470 |  |  | 
CC(=O)Nc1ncc(-c2ccncn2)c(-c2ccco2)n1 | 2 | 380 | 2 |  |  |  | inhibition [2]: 10%
O=C(Nc1ccc(C2N=NN=N2)c(-c2ccco2)n1)C1CC1 | 8 |  | 1 | 1640 |  |  | inhibition [10]: 23%
O=C(Nc1ccc(-c2ccncc2F)c(-c2ccco2)n1)C1CC1 | 11 | 1 |  | 150 |  | 374 | metabolised at 0.5 h, 5 µM [8]: 77%; metabolised at 0.5 h, 5 µM [9]: 99%
O=C(Nc1ccc(-c2ccncc2)c(-c2ccncn2)n1)C1CC1 | 3 | 208 | 3 |  |  |  | inhibition [2]: 9%
O=C(Nc1ccc(-c2ccncc2)c(-c2ccccn2)n1)C1CC1 | 2 | 47 |  | 862 |  | 940 | Vd [12]: 1 L/kg; AUC(0-inf) [13]: 485 ng·h/mL; half-life [14]: 30 min; Cmax [15]: 822 ng/mL; metabolised at 0.5 h, 5 µM [18]: 0%; metabolised at 0.5 h, 5 µM [9]: 12%; clearance [17]: 35 mL/min/kg

Further lines, with some results ahead:

inhibition [1] [%] | Ki [3] [nM] | inhibition [4] [%] | Ki [5] [nM] | Ki [6] [nM] | Ki [7] [nM] | SMILES | further results
 | 7 |  | 209 | 333 | 358 | CC(=O)Nc1ccc(-c2ccncc2)c(-c2ccco2)n1 | 
 | 5 |  | 147 | 1870 | 250 | O=C(Nc1ccc(-c2ccncc2Cl)c(-c2ccco2)n1)C1CC1 | 
7 |  | 8 |  |  |  | O=C(Nc1ccc(-c2ccncc2)cn1)C1CC1 | inhibition [10]: 29%; inhibition [2]: 2%
2 | 3670 | 6 |  |  |  | CC(=O)c1nc(NC(=O)C2CC2)ccc1-c1ccncc1 | inhibition [2]: 2%
5 | 30 |  | 635 |  | 635 | O=C(Nc1ccc(-c2ccncc2)c(-c2cnco2)n1)C1CC1 | 
 | 28 |  | 35 | 617 | 285 | O=C(Nc1ccc(Br)c(-c2ccco2)n1)C1CC1 | 
 | 2 |  | 57 | 715 | 14 | O=C(Nc1ccc(-c2ccncc2)c(-c2cccc(F)c2)n1)C1CC1 | 
 | 4 |  | 239 | 3750 | 931 | O=C(Nc1ccc(-c2ccncn2)c(-c2ccco2)n1)C1CC1 | bioavailability [11]: 39%; Vd [12]: 1.6 L/kg; AUC(0-inf) [13]: 267 ng·h/mL; half-life [14]: 30 min; Cmax [15]: 538 ng/mL; metabolised at 0.5 h, 5 µM [9]: 27%; Tmax [16]: 18 min; clearance [17]: 63.3 mL/min/kg
12 | 134 | 1 | 1370 |  |  | O=C(Nc1ccc(-c2ccncc2)c(-c2cocn2)n1)C1CC1 | 
1 | 202 | 3 |  |  |  | O=C(Nc1ccc(-c2ccncc2)c(-c2cc[nH]n2)n1)C1CC1 | inhibition [2]: 4%
11 | 42 |  | 302 |  | 914 | O=C(Nc1ccc(-c2ccncc2)c(-c2nccs2)n1)C1CC1 | 
 | 1 |  | 30 | 1340 | 82 | O=C(Nc1ccc(-c2ccncc2)c(-c2ccco2)n1)C1CC1 | 
6 | 14 |  | 163 |  | 338 | O=C(Nc1ccc(-c2ccncc2)c(-c2ccncc2)n1)C1CC1 | 
22 | 32 |  | 1360 |  | 702 | O=C(Nc1ccc(-c2ccncc2)c(-c2ncco2)n1)C1CC1 | Vd [12]: 1.6 L/kg; AUC(0-inf) [13]: 533 ng·h/mL; half-life [14]: 54 min; Cmax [15]: 761 ng/mL; metabolised at 0.5 h, 5 µM [18]: 14%; metabolised at 0.5 h, 5 µM [19]: 27%; clearance [17]: 31.7 mL/min/kg
 | 78 |  | 813 | 4850 | 320 | O=C(Nc1ccc(-c2ccncc2)c(-c2cncs2)n1)C1CC1 | 
2 | 72 | 22 | 1440 |  |  | O=C(Nc1ccc(-c2ccncc2)c(-n2cccn2)n1)C1CC1 | 
14 | 380 | 5 |  |  |  | O=C(Nc1ccc(-c2ccncc2)c(Cl)n1)C1CC1 | inhibition [2]: 7%
27 | 4 |  | 39 |  | 35 | O=C(Nc1ccc(-c2ccncc2)c(-c2ccc(F)cc2)n1)C1CC1 | 
